Results: patent US20120142771A1, “BIPHENYLACETAMIDE DERIVATIVE” (Dainippon Sumitomo Pharma Co., Ltd., priority 2008, published 2012)

What was measured:
Assay type in all cases: in vivo, mice
[1] = tested on: 6 Hz psychomotor seizure model; test: 6 Hz psychomotor seizure model; conditions: mice; for 6 Hz (Positive number/tested number): dose 100 mg/kg, 30 minutes or 1 hour after administration; for efficacy in 6 Hz psychomotor seizure model: oral administration at a dose of 100 mg/kg
Protocol: Test 4: Test of 6 Hz Psychomotor Seizure Model
Similar to Tests 1 and 2, Test 4 evaluates the anticonvulsant action of medicaments. However, unlike Tests 1 and 2, the animal model used herein represents clinical phenotypes of seizures resistant to existing antiepileptic drugs. […] After 30 minutes or an hour of administration, their corneas were electrically stimulated (6 Hz, 32 mA, 3 seconds) to induce symptoms of myoclonus in their forelimbs, Straub tail, and immobility. […] To the control mice, 0.5% tragacanth solution, 0.5% methylcellulose solution, or olive oil was administered.

[2] = tested on: subcutaneously pentetrazol-injected model (scPTZ); test: Subcutaneously pentetrazol-injected model (scPTZ) test; conditions: pentetrazol 85 mg/kg s.c. after 1 hour; for responders at 50 mg/kg / responders at 100 mg/kg: Mus musculus, po, 1 h, Slc: ddY male mice, 3 per group, observed 30 minutes for clonic convulsion, read-out: scPTZ (positive number/tested number) (converted); for responders at 50 mg/kg: 50 mg/kg oral; for responders at 100 mg/kg: 100 mg/kg oral; for anticonvulsant action in subcutaneously pentetrazol-injected model (scPTZ) test: mice, oral 50 or 100 mg/kg
Procedure, shortened: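 Pentetrazol (85 mg/kg, s.c.) was injected one hour after oral test compound at 50 or 100 mg/kg in groups of three male Slc:ddY mice weighing 20-30 g; vehicle controls got 0.5% tragacanth or 0.5% methylcellulose.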

[3] = tested on: maximum electroshock seizure (MES) model; test: Maximum electroshock seizure (MES) model test; conditions: for responders at 50 mg/kg / responders at 100 mg/kg: Mus musculus, po, 1 h, Slc: ddY male mice, 3 per group, electrical stimulation 1 hour after administration, inhibition of hind limb extension, read-out: MES (positive number/tested number) (converted); for responders at 50 mg/kg: 50 mg/kg oral; for responders at 100 mg/kg: 100 mg/kg oral; for anticonvulsant action in maximum electroshock seizure (MES) model test: mice, oral 50 or 100 mg/kg, 1 hour after administration
Procedure, shortened: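 Tonic hind-limb extension was elicited by corneal electroshock (60 Hz, 25 mA, 0.2 s) 1 h after oral dosing. Test compounds were given at 50 or 100 mg/kg to groups of 3 male Slc: ddY mice (20-30 g), vehicle controls receiving 0.5% tragacanth or 0.5% methylcellulose solution.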

SMILES	6 Hz (Positive number/tested number) ([1]; oral)	responders at 50 mg/kg [2]	responders at 100 mg/kg [2]	responders at 50 mg/kg [3]	responders at 100 mg/kg [3]	anticonvulsant action in subcutaneously pentetrazol-injected model (scPTZ) test [2]	anticonvulsant action in maximum electroshock seizure (MES) model test [3]	efficacy in 6 Hz psychomotor seizure model [1]	ED50 ([1]; Mus musculus, 6 Hz psychomotor seizure model, oral, read-out: ED50)
NC(=O)Cc1ccccc1-c1cc(Cl)cc(Cl)c1Cl [Example 64, 2-(2′,3′,5′-Trichlorobiphenyl-2-yl)acetamide]	3/5/100	0%	100%	100%	100%	–	–	–	–
NC(=O)Cc1ccccc1-c1ccc(Cl)cc1Cl [Example 78, 2-(2′,4′-dichlorobiphenyl-2-yl)acetamide]	3/5/100	0%	66.7%	100%	100%	–	–	–	–
NC(=O)Cc1ccccc1-c1cc(F)cc(Cl)c1 [Example 80, 2-(3′-chloro-5′-fluorobiphenyl-2-yl)acetamide]	4/5/100	66.7%	100%	100%	100%	anticonvulsant action was observed	anticonvulsant action was observed	–	–
NC(=O)Cc1ccccc1-c1cccc(F)c1Cl [Example 86, 2-(2′-chloro-3′-fluorobiphenyl-2-yl)acetamide]	2/5/100	33.3%	66.7%	100%	66.7%	–	–	–	–
NC(=O)Cc1ccccc1-c1cc(F)ccc1Cl [Example 88, 2-(2′-chloro-5′-fluorobiphenyl-2-yl)acetamide]	3/5/100	66.7%	100%	66.7%	100%	anticonvulsant action was observed	anticonvulsant action was observed	–	–
NC(=O)Cc1ccccc1-c1cc(Cl)ccc1C(F)(F)F [Example 91, 2-[5′-chloro-2′-(trifluoromethyl)biphenyl-2-yl]acetamide]	5/5/100	66.7%	66.7%	100%	100%	anticonvulsant action was observed	anticonvulsant action was observed	potent efficacy	–
NC(=O)Cc1ccccc1-c1cc(OC(F)(F)F)ccc1F [Example 93, 2-[2′-fluoro-5′-(trifluoromethoxy)biphenyl-2-yl]acetamide]	2/5/100	33.3%	100%	100%	100%	–	–	–	–
NC(=O)C(O)c1ccccc1-c1cccc(F)c1 (centres unmarked) [Example 178, 2-(3′-fluorobiphenyl-2-yl)-2-hydroxyacetamide]	5/10/100	100%	100%	66.7%	100%	anticonvulsant action was observed	anticonvulsant action was observed	–	117 mg/kg
NC(=O)C(O)c1ccccc1-c1cc(Cl)cc(Cl)c1 (centres unmarked) [Example 183, 2-(3′,5′-dichlorobiphenyl-2-yl)-2-hydroxyacetamide]	4/5/100	66.7%	66.7%	100%	100%	anticonvulsant action was observed	anticonvulsant action was observed	–	–
NC(=O)C(O)c1ccccc1-c1cc(F)ccc1Cl (centres unmarked) [Example 185, 2-(2′-chloro-5′-fluorobiphenyl-2-yl)-2-hydroxyacetamide]	5/5/100	66.7%	100%	66.7%	100%	anticonvulsant action was observed	anticonvulsant action was observed	potent efficacy	–
